Measured values from patent publication US11564990B2, “Multi-drug-loading-site, high drug-loading capacity ligand-drug conjugate” (JenKem Technology Co., Ltd. (Beijing), priority 2017, dated 2023).

Tests used:
[1] = Determination of drug antibody coupling ratio (DAR) by UV/Vis method; format: physicochemical; settings: two-step coupling products, UV-Vis; moles of drug divided by moles of antibody
Text: In formula (1), the sum of the absorbances of the drug and the antibody at 280 nm constitutes the total absorbance (A280): A280=(εdrug^280Cdrug+εmAb^280CmAb)l (1)
wherein εdrug^280 is the extinction coefficient of the drug at 280 nm; Cdrug is the drug concentration (mg/mL); […] the extinction coefficient of the antibody at 280 nm; CmAb is the concentration of the antibody.
Equation (2) is the parallel equation for the total absorbance of the drug at the maximum absorption λ(D): Aλ(D)=(εdrug^λ(D)Cdrug+εmAb^λ(D)CmAb)l (2)
wherein εdrug^λ(D) is the extinction coefficient of the drug at λ(D)nm; Cdrug is the drug concentration (mg/mL); εmAb^λ(D) is the extinction coefficient of the antibody at λ(D)nm; CmAb is the concentration of the antibody (mg/mL).
The concentration of antibody and drug can be calculated separately by two equations (1) and (2). CmAb=(A280εdrug^λ(D)−Aλ(D)εdrug^280)/[(εmAb^280εdrug^λ(D)−εmAb^λ(D)εdrug^280)l] (3) Cdrug=(A280εmAb^λ(D)−Aλ(D)εmAb^280)/[(εdrug^280εmAb^λ(D)−εdrug^λ(D)εmAb^280)l] (4)
The average drug antibody coupling ratio (DAR) calculated by dividing
[formula] is expressed as the number of moles of drug divided by the number of moles of antibody: […]

[2] = tested on: colorectal cancer model (HCT-116); experiment: Efficacy test in colorectal cancer model in which HER2 was not expressed; format: in vivo, nude mice; settings: HCT-116 model
Method: Experimental method: Evaluation of the efficacy of the sample was performed using a colorectal cancer model in which HER2 was not expressed. The cell line at logarithmic growth phase was inoculated subcutaneously into the right side of the immunodeficient mice, and the cell inoculation amount was 5×10^6 cells/mouse. After the transplanted tumor was formed, allow it grow in the mice for 2 passage before use. The tumor tissue with strong growth period was cut into tumor pieces with a diameter of about 2 mm, and inoculated subcutaneously into the right torso of nude mice under sterile conditions. The formed tumor tissue is measured by a vernier caliper, and the long and short diameters are represented by a and b, respectively, and the tumor volume (TV) is calculated as: TV=½×a×b^2. Animals were randomized after tumor growth to 100-150 mm^3. Both models were divided into vehicle group, control group (recombinant anti-HER2 humanized monoclonal antibody Ab, 30 mg/kg) and test group I (administered with APEGA-8, 9, 10, respectively (prepared in Example 6-8), the dose was 30 mg/kg in terms of Ab, and the test group II (PEG-Irinotecan (prepared in Example 5), the dose was 30 mg/kg). Both the test article and the control drug were administered once a week vial the tail vein for a total of three administrations. The diameter of the transplanted tumor was measured twice a week during the entire experiment, and the body weight of the mice was weighed. After the end of the administration, continue to observe the animals for a week, and then they were sacrificed.

[3] = Antibody pharmacokinetic assay in rats (total antibody in plasma by HER2 ELISA); settings: SD rats, intravenous 30 mg/kg, compared with control Ab

## CCc1c2c(nc3ccc(OC(=O)N4CCC(N5CCCCC5)CC4)cc13)-c1cc3c(c(=O)n1C2)COC(=O)[C@]3(C)CC [APEGA-8]
[1]
  DAR (average drug antibody coupling ratio): 22.2
[2]; 30 mg/kg in terms of Ab, QW×3
  antitumor activities in relation to drug loading: increased with the drug loading
[2]; irinotecan dose 2.6, 4.2, 11.2 mg/kg respectively
  efficacy compared with group II (PEG-Irinotecan 30 mg/kg): still better than group II
[2]; third week of administration, 30 mg/kg QW×3 via tail vein
  Tumor inhibition rate (%): 40.1%
[3]
  elimination rate in rat plasma (total antibody): increased to a certain extent compared with the control Ab, but the decline trend was not significant
